Data published in patent publication US9988400B2 (Genentech, Inc., priority 2013, dated 2018).

Molecular target: T1, HEK cells stably transfected with tetracycline inducible hNR1 and hNR2A (Homo sapiens, UniProt Q05586+Q12879)
T1 construct: expressed in transfected cells; host or cells: HEK cells, stably transfected, tetracycline/doxycycline inducible
Experiment: Assay 1: Cell-Based Assay, cytosolic calcium response to positive allosteric modulators (with 30 μM glycine and 300 nM L-glutamate, EC30)
Conditions: for Max %: responses scaled relative to 100 μM L-glutamate maximal response (100%) and 0 μM L-glutamate (0%); for EC50: cytosolic calcium response, with 30 μM glycine and 300 nM L-glutamate (EC30), — = no plateau was reached
Protocol: Assay 1: Cell-Based Assay
HEK cells stably transfected with tetracycline inducible hNR1 and hNR2A were seeded into clear bottom 384 well poly-D-lysine coated plates (2.5×10^4 cells per well) in Minimum Essential Media (MEM; without L-) including 7.5 μg mL^−1 doxycycline and 500 μM (+)-ketamine. The cells were incubated at 37° C. in 5% CO2 for 24 h. For measurement of changes in cytosolic calcium, the seeding media was removed and the cells incubated at 37° C. for 60 min with 1× Becton Dickinson Calcium Assay Kit reagent in Hanks Balanced Salt Solution (HBSS; w/o magnesium, including 1.8 mM calcium, 0.65 mg ml^−1 probenecid and 10 μM (+)-ketamine, pH 7.15) then allowed to equilibrate to rt for 30 min. Concentration-effect curves to Positive Allosteric Modulators (PAMs) were constructed by adding different concentrations (with 30 μM glycine and 300 nM L-glutamate (EC30)) to different wells in HBSS. Compounds were added after a 10 second baseline read and maximum level of relative fluorescence units (RFU) was measured over a 5 min period. Responses were scaled relative to 100 μM L-glutamate maximal response (100%) and 0 μM L-glutamate (0%). EC50 values are provided for compounds reaching maximal response plateaus, and the max % (EC50 (- -)) only if no plateau was reached.
A four-parameter Hill equation was fitted to individual concentration-effect curves:
[formula] in which Y, S0, Sinf, AC50, n and c were effect, lower-asymptote, upper-asymptote, mid-point location, slope parameter, and concentration respectively.

T1 sequence (Q12879 23-1464, other chains not shown): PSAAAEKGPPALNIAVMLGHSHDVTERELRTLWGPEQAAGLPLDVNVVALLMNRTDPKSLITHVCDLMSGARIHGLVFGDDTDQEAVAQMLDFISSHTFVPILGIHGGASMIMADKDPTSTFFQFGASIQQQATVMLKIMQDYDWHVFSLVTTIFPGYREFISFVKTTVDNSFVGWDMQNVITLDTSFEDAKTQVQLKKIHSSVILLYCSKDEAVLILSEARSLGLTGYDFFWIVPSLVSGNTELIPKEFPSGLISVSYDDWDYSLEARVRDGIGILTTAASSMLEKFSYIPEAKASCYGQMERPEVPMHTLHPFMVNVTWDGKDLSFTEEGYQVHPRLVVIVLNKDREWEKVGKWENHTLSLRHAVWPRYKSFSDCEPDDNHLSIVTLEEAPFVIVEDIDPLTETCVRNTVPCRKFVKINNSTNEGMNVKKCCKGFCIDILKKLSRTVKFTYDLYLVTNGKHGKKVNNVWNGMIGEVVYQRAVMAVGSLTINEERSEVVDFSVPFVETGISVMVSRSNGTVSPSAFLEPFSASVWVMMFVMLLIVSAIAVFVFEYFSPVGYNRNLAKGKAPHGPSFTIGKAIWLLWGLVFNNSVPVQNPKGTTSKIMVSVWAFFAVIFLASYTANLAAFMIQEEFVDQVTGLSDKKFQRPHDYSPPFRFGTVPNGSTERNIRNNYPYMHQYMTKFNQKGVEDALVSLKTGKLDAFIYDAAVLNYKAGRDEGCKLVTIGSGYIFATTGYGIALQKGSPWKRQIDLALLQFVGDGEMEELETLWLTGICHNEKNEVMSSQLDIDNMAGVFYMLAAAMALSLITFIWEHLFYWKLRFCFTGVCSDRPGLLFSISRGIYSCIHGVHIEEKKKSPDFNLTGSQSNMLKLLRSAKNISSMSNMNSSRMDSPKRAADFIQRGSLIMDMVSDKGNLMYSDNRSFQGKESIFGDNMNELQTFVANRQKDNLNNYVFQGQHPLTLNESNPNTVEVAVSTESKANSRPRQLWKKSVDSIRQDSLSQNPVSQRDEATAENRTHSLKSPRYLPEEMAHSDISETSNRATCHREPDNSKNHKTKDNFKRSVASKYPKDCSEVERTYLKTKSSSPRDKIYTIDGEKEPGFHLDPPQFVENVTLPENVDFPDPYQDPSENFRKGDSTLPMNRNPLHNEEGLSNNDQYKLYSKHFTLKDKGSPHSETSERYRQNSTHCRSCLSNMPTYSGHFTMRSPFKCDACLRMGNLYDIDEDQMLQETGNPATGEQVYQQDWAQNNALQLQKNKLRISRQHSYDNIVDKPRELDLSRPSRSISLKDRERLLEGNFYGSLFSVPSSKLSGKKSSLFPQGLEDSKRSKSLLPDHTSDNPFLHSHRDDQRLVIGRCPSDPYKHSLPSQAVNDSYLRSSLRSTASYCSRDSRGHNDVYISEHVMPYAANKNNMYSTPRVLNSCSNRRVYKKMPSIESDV

Row | Max % (Table 2) [%] | EC50 (Table 2) [nM] | EC50 (Table 3) [nM] | Compound
1 | 48.1 |  |  | CCN(Cc1cc(=O)n2c(C3CCCCC3)c(C)sc2n1)c1ccc(F)cc1 [Example 9.1, 3-cyclohexyl-7-[[ethyl(4-fluorophenyl)amino]methyl]-2-methyl-5H-[1,3]thiazolo[3,2-a]pyrimidin-5-one]
2 | 61.9 |  |  | Cc1sc2nc(Cn3nc(C4CC4)cc3C)cc(=O)n2c1[C@@H]1C[C@H]1CO (single isomer, unassigned) [Example 15.15, 7-[(3-cyclopropyl-5-methyl-pyrazol-1-yl)methyl]-3-[2-(hydroxymethyl)cyclopropyl]-2-methyl-thiazolo[3,2-a]pyrimidin-5-one]
3 | 40.3 |  |  | Cc1sc2nc(COc3ccc(F)cc3)cc(=O)n2c1C1CC1 [Example 4.17, 3-cyclopropyl-7-[(4-fluorophenoxy)methyl]-2-methyl-thiazolo[3,2-a]pyrimidin-5-one]
4 | 159 | 3100 |  | Cc1cc(C2CC2)n(Cc2cc(=O)n3c([C@@H]4C[C@H]4CO)c(C)sc3n2)n1 (single isomer, unassigned) [Example 15.14, 7-[(5-cyclopropyl-3-methyl-pyrazol-1-yl)methyl]-3-[2-(hydroxymethyl)cyclopropyl]-2-methyl-thiazolo[3,2-a]pyrimidin-5-one]
5 | 108 | 4300 |  | Cc1sc2nc(COc3ccc(C(F)(F)F)cc3)cc(=O)n2c1[C@@H]1C[C@H]1CO (relative stereo) [Example 4.10, 3-(trans-2-(hydroxymethyl)cyclopropyl)-2-methyl-7-((4-(trifluoromethyl)phenoxy)methyl)-5H-thiazolo[3,2-a] pyrimidin-5-one]
6 |  |  | 6860 | CCNC(=O)c1c(C(F)(F)F)sc2nc(CN(C)c3ccc(F)cn3)cc(=O)n12 [compound 230, N-ethyl-7-[[(5-fluoro-2-pyridyl)-methyl-amino]methyl]-5-oxo-2-(trifluoromethyl)thiazolo[3,2-a]pyrimidine-3-carboxamide]
7 | 127 | 12900 |  | CCN(Cc1cc(=O)n2c(-c3nc(C)cs3)c(C)sc2n1)c1ccc(F)cc1 [Example 5.49, 7-((ethyl(4-fluorophenyl)amino)methyl)-2-methyl-3-(4-methylthiazol-2-yl)-5H-thiazolo[3,2-a]pyrimidin-5-one]
8 | 123 | 4300 |  | CCN(Cc1cc(=O)n2c(-c3ccncc3)c(C)sc2n1)c1ccc(F)cc1 [Example 5.32, 7-[(N-ethyl-4-fluoro-anilino)methyl]-2-methyl-3-(4-pyridyl)thiazolo[3,2-a]pyrimidin-5-one]
9 | 61.3 |  |  | CCN(Cc1cc(=O)n2c(-c3cncc(C(F)(F)F)c3)c(C)sc2n1)c1ccc(F)cc1 [Example 5.36, 7-[(N-ethyl-4-fluoro-anilino)methyl]-2-methyl-3-[5-(trifluoromethyl)-3-pyridyl]thiazolo[3,2-a]pyrimidin-5-one]
10 | 124 | 18900 |  | CCNC(=O)c1c(C)sc2nc(Cc3cccc(C)c3F)cc(=O)n12 [Example 21.5, N-ethyl-7-(2-fluoro-3-methylbenzyl)-2-methyl-5-oxo-5H-thiazolo[3,2-a]pyrimidine-3-carboxamide]
11 |  |  | 3160 | Cc1sc2nc(Cc3cccc(C(F)(F)F)c3F)cc(=O)n2c1C(=O)NCC(F)(F)F [compound 51, 7-[[2-fluoro-3-(trifluoromethyl)phenyl]methyl]-2-methyl-5-oxo-N-(2,2,2-trifluoroethyl)thiazolo[3,2-a]pyrimidine-3-carboxamide]
12 |  |  | 1280 | COc1cc(F)c(F)cc1Cc1cc(=O)n2c(C3CC3C#N)c(C)sc2n1 (stereo not shown) [compound 194, 2-[7-[(4,5-difluoro-2-methoxy-phenyl)methyl]-2-methyl-5-oxo-thiazolo[3,2-a]pyrimidin-3-yl]cyclopropanecarbonitrile]
13 |  |  | 3690 | CNC(=O)Cc1c(C)sc2nc(Cn3nc(Cl)cc3C(F)(F)F)cc(=O)n12 [compound 99, 2-[7-[[3-chloro-5-(trifluoromethyl)pyrazol-1-yl]methyl]-2-methyl-5-oxo-thiazolo[3,2-a]pyrimidin-3-yl]-N-methyl-acetamide]
14 | 185 | 777 |  | CCN(Cc1cc(=O)n2c(CCO)c(C)sc2n1)c1ccc(F)cc1 [Example 13.4, 7-((Ethyl(4-fluorophenyl)amino)methyl)-3-(2-hydroxyethyl)-2-methyl-5H-thiazolo[3,2-a]pyrimidin-5-one]
15 |  |  | 2090 | Cc1sc2nc(Cn3nc(C(F)(F)F)cc3Cl)cc(=O)n2c1-c1nccs1 [compound 142, 7-[[5-chloro-3-(trifluoromethyl)pyrazol-1-yl]methyl]-2-methyl-3-thiazol-2-yl-thiazolo[3,2-a]pyrimidin-5-one]
16 |  |  | 34.2 | Cc1sc2nc(Cn3nc(C(F)(F)F)cc3Br)cc(=O)n2c1C1CC1C#N (stereo not shown) [compound 234, 2-[7-[[5-bromo-3-(trifluoromethyl)pyrazol-1-yl]methyl]-2-methyl-5-oxo-thiazolo[3,2-a]pyrimidin-3-yl]cyclopropanecarbonitrile]
17 | 176 | 548 |  | CCN(Cc1cc(=O)n2c(C(C)O)c(C)sc2n1)c1ccc(F)cc1 (stereo not shown) [Example 10.6, 7-[(N-ethyl-4-fluoro-anilino)methyl]-3-(1-hydroxyethyl)-2-methyl-thiazolo[3,2-a]pyrimidin-5-one]
18 |  |  | 775 | Cc1sc2nc(Cn3nc(C(F)(F)F)cc3Cl)cc(=O)n2c1-c1cncc(F)c1 [compound 138, 7-[[5-chloro-3-(trifluoromethyl)pyrazol-1-yl]methyl]-3-(5-fluoro-3-pyridyl)-2-methyl-thiazolo[3,2-a]pyrimidin-5-one]
19 | 136 | 2700 |  | CCN(Cc1cc(=O)n2c(-c3cncc(C#N)c3)c(C)sc2n1)c1ccc(F)cc1 [Example 5.35, 5-[7-[(N-ethyl-4-fluoro-anilino)methyl]-2-methyl-5-oxo-thiazolo[3,2-a]pyrimidin-3-yl]pyridine-3-carbonitrile]
20 | 143 | 10500 |  | Cc1cc(C)n(Cc2nc3sc(C)c([C@@H]4C[C@H]4CO)n3c(=O)c2F)n1 (relative stereo) [Example 15.18, 7-((3,5-dimethyl-1H-pyrazol-1-yl)methyl)-6-fluoro-3-(trans-2-(hydroxymethyl)cyclopropyl)-2-methyl-5H-thiazolo[3,2-a]pyrimidin-5-one]
21 |  |  | 39.1 | Cc1sc2nc(Cn3nc(C(F)(F)F)cc3Cl)cc(=O)n2c1C1CC1CO (single isomer, unassigned) [compound 136]
22 | 55.1 |  |  | Cc1sc2nc(COc3ccc(F)cc3)cc(=O)n2c1C(=O)NC1CC1 [Example 1.15, N-cyclopropyl-7-((4-fluorophenoxy)methyl)-2-methyl-5-oxo-5H-thiazolo[3,2-a]pyrimidine-3-carboxamide]
23 |  |  | 1370 | CCNC(=O)Cc1c(C)sc2nc(Cc3cccc(C(F)(F)F)c3F)cc(=O)n12 [compound 71, N-ethyl-2-[7-[[2-fluoro-3-(trifluoromethyl)phenyl]methyl]-2-methyl-5-oxo-thiazolo[3,2-a]pyrimidin-3-yl]acetamide]
24 | 64.1 |  |  | CNC(=O)c1c(C)sc2nc(Cc3ccc(Cl)cc3Cl)cc(=O)n12 [Example 21.57, 7-[(2,4-dichlorophenyl)methyl]-N,2-dimethyl-5-oxo-thiazolo[3,2-a]pyrimidine-3-carboxamide]
25 | 172 | 1500 |  | CCN(Cc1cc(=O)n2c(Cn3cccn3)c(C)sc2n1)c1ccc(F)cc1 [Example 10.14, 7-[[Ethyl(4-fluorophenyl)amino]methyl]-2-methyl-3-(1H-pyrazol-1-ylmethyl)-5H-[1,3]thiazolo[3,2-a]pyrimidin-5-one]
26 |  |  | 252 | Cc1sc2nc(Cn3ccc(C(F)(F)F)n3)cc(=O)n2c1C1CC1C#N (single isomer, unassigned) [compound 272]
27 | 141 | 1700 |  | CCN(Cc1cc(=O)n2c(C3CC3CO)c(C)sc2n1)c1ccc(F)cc1 (single isomer, unassigned) [Example 5.19, 7-((ethyl(4-fluorophenyl)amino)methyl)-3-(trans-2-(hydroxymethyl)cyclopropyl)-2-methyl-5H-thiazolo[3,2-a] pyrimidin-5-one]
28 |  |  | 10100 | Cc1sc2nc(Cn3nc(Cl)cc3C(F)(F)F)cc(=O)n2c1-c1ccn[nH]1 [compound 133, 7-[[3-chloro-5-(trifluoromethyl)pyrazol-1-yl]methyl]-2-methyl-3-(1H-pyrazol-5-yl)thiazolo[3,2-a]pyrimidin-5-one]
29 |  |  | 5850 | Cc1sc2nc(Cn3nc(C(F)(F)F)cc3Cl)cc(=O)n2c1C(O)C(F)(F)F (stereo not shown) [compound 203, 7-[[5-chloro-3-(trifluoromethyl)pyrazol-1-yl]methyl]-2-methyl-3-(2,2,2-trifluoro-1-hydroxy-ethyl)thiazolo[3,2-a]pyrimidin-5-one]
